Literature values as cited in patent US20210338713A1, “Reduction of Pulmonary Inflammation Using Therapeutic Gas Mixtures” (Brain Cancer Research Institute, priority 2020, published 2021).

Key:
[1] = tested on: ovine model of ARDS; settings: inhalation, P<0.05
[2] = tested on: pediatric patients with ARDS
[3] = tested on: RDS patients; settings: surviving patients, six months post-treatment, low-dose iNO
[4] = in combination with oxygen
[5] = in vivo

SMILES: [N]=O [nitric oxide]
- arterial PO2 [1]: increase
- venous admixture (Qva/QT) ([1]; without altering cardiac output): decrease
- pulmonary arterial pressure (PAP) and resistance ([1]; without any systemic hemodynamic effects): decrease
- patients with improved oxygenation ([2]; inhaled): 15 of 17
- mean pulmonary artery pressure and intrapulmonary shunt ([2]; inhaled, without changing systemic arterial pressure or pulmonary capillary wedge pressure): lowered
- survival, patients with ARDS ([2]; low-dose inhaled NO (3 to 10 ppm) for 1 to 24 days, 5 of 10 patients): 50%
- survival, non-ARDS patients ([2]; low-dose inhaled NO (3 to 10 ppm) for 1 to 24 days, 7 of 7 patients): 100%
- values for select pulmonary function tests versus placebo-treated patients [3]: significantly better

SMILES: [Xe] [xenon]
- concentrations at which xenon exhibits anaesthetic effects [4]: 10-70 vol. %
- toxic effects on main organs [5]: does not induce significant toxic effects
